How the values were obtained:
MK3 = molecular target: T1, MK3 (Homo sapiens, UniProt Q16644); experiment: Eurofins kinase selectivity profile, MK3; assay type: biochemical
T1 construct: purchased Eurofins (Celle Lévescault)
Experimental: Subsequently, to ascertain whether the high potency of compound 11 was specific for MK2, an additional 380 human recombinant protein kinases were screened.
To assess the impact of various compounds on MK2 kinase activity, we utilized the ADP‐Glo Assay Kit (Promega) following the manufacturer's instructions. Luminescence measurements were taken using a SpectraMax Paradigm reader. The inhibition percentage was calculated using the following formula: ((specific signalDMSO control − specific signal inhibitor)/(specific signalDMSO control)) × 100%. The IC50 values were determined employing dose–response curve fitting via Prism (Graph Pad). Additionally, Eurofins company (Celle Lévescault) conducted the analysis on compound 11’s inhibitory activity against 380 other human recombinant kinases at various concentrations.

[1] = Cell viability assay (CCK-8), H1437; assay type: cell-based; settings: H1437 cells (non-small cell lung carcinoma), H1437, human non-small cell lung carcinoma, read-out: IC50 (μM) mean ± SD, cytotoxicity
Experimental: In cellular experiments, cells are seeded into either 6-well or 96-well plates and incubated overnight, proceeding with treatments as described in the figure legends or methods section. The cell inoculation numbers are outlined as follows: For assays measuring cell viability, between 3,000 to 5,000 cells are seeded per well in 96-well plates. For other cellular assays, the seeding density ranges from 5×10^5 to 1×10^6 cells per well in 6-well plates.
(§1) Cells was plated into 96-well plates and incubated overnight prior to introduction of varying concentrations of compounds or control solvent. Following a 72-hour exposure period, cell viability was determined using a Cell Counting Kit-8 assay (Life-iLab, China). Dose-response curves were fitted using a four-parameter method facilitated by SoftMax Pro, which was subsequently used for the computation of IC50 values.

[2] = Cytotoxicity assays, summary over all cell lines; assay type: cell-based; settings: range over three normal and six tumor cell lines
Source text: MK2, as a pivotal regulator of the well‐acknowledged p38 inflammation signaling pathway, is increasingly recognized for its critical role in the initiation and progression of cancer. Through an analysis of the clinical data from the TCGA database, we found the significant impact of MK2 on cancer. […] Moreover, macrophages are abundant in cancer, and such abundance correlates with poor prognosis in most malignancie.[17], [18], [19], [20] […] Additionally, the knockdown of MK2 using specific siRNA in macrophages also led to the downregulation of M2 markers. […] Moreover, compound 11’s effect on macrophages extended to inhibition of typical proinflammatory cytokines and crucial factors in inflammation‐driven tumorigenesis. […] These findings bolster the rationale for pursuing the development and application of MK2 inhibitors in the treatment of inflammation‐driven or macrophage‐rich cancers.
as §1

[3] = molecular target: T2, 380 human recombinant protein kinases (Homo sapiens, UniProt Q9UL54); experiment: Eurofins kinase selectivity profile against 380 other human recombinant kinases (Table S2); assay type: biochemical; settings: TAO2(h), read-out: Inhibition rate (%)
T2 construct: purchased Eurofins (Celle Lévescault)
T2 sequence (Q9UL54 1-1235): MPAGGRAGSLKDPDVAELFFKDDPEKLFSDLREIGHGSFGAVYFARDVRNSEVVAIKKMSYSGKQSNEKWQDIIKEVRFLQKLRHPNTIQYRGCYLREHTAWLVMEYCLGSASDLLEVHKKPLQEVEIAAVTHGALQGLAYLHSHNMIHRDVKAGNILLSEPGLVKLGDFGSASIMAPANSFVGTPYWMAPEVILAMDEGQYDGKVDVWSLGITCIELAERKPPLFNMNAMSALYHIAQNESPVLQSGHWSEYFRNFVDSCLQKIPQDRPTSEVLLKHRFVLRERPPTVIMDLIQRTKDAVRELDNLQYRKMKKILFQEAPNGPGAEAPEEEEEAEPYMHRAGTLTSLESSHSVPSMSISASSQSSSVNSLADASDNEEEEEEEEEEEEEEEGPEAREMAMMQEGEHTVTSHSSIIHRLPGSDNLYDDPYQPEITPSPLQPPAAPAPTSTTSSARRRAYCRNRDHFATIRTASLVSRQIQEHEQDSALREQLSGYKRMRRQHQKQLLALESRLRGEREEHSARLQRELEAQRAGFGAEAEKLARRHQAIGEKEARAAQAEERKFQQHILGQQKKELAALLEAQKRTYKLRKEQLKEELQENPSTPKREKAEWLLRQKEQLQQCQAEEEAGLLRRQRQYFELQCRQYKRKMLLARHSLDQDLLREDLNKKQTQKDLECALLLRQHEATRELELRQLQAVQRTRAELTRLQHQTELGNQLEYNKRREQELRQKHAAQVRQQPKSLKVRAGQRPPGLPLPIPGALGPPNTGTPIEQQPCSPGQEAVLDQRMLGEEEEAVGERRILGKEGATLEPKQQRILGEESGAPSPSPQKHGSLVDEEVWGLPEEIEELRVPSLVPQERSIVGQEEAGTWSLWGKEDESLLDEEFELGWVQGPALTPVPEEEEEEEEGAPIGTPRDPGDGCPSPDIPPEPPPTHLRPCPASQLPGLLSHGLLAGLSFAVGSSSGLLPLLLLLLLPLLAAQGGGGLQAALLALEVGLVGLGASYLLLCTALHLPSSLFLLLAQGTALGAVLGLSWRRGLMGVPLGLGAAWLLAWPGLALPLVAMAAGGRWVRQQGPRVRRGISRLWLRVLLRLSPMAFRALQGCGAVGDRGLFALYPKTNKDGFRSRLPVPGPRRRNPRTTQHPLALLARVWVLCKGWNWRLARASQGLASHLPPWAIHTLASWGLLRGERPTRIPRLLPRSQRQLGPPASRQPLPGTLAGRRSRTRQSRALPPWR
How it was run: (§2)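 Commercial selectivity screen of the test compound against a panel of 380 human recombinant protein kinases, run by an outside contractor at several compound concentrations to check whether its potency was specific for MK2.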

[4] = molecular target: T3, 380 human recombinant protein kinases (Homo sapiens, UniProt Q96J92); experiment: as above; assay type: biochemical; settings: WNK4(h), read-out: Inhibition rate (%)
T3 construct: purchased Eurofins (Celle Lévescault)
T3 sequence (Q96J92 whole entry): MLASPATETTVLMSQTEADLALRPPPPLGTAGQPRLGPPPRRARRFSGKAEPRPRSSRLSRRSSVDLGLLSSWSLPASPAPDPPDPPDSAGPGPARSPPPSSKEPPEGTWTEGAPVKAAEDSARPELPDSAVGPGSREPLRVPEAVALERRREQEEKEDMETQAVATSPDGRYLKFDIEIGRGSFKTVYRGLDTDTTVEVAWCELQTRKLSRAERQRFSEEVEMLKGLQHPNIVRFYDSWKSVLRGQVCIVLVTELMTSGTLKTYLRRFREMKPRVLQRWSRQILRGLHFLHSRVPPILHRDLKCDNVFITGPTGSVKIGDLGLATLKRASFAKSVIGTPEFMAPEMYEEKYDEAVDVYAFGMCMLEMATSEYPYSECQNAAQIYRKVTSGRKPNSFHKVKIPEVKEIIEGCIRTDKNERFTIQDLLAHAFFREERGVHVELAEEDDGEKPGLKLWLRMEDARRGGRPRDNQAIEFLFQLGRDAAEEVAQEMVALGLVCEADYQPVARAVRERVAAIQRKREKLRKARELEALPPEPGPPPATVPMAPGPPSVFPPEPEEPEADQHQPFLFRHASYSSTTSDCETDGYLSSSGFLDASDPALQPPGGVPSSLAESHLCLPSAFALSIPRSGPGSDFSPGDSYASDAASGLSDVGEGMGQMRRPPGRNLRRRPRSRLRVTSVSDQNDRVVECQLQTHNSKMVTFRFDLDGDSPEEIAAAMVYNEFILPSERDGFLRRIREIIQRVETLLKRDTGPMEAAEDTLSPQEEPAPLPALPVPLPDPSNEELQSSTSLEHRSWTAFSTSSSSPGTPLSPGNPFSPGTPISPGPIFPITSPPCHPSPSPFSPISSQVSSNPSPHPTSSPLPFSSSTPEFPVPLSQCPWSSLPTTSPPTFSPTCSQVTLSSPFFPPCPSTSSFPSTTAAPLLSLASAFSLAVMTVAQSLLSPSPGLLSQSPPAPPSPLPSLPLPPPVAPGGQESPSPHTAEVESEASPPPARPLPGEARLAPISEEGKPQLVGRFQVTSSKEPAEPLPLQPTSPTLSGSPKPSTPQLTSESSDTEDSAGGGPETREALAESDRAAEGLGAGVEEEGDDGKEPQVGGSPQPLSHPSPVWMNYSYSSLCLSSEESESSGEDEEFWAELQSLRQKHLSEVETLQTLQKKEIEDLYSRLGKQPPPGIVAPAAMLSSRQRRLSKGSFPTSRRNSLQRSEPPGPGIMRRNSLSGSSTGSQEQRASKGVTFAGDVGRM
How it was run: as §2

[5] = molecular target: T4, 380 human recombinant protein kinases (Homo sapiens, UniProt Q9HBY8); experiment: as above; assay type: biochemical; settings: SGK2(h), read-out: Inhibition rate (%)
T4 construct: purchased Eurofins (Celle Lévescault)
T4 sequence (Q9HBY8 1-367): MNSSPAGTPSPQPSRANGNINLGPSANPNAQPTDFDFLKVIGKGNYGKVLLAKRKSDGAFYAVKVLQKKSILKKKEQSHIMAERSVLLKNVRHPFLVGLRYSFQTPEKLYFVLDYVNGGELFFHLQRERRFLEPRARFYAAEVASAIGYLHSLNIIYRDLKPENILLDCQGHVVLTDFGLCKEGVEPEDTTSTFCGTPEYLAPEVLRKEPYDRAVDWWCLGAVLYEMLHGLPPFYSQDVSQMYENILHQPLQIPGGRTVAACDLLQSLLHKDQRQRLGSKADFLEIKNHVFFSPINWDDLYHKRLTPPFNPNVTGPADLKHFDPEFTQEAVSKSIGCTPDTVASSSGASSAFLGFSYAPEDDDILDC
How it was run: as §2

T1 sequence (Q16644 whole entry): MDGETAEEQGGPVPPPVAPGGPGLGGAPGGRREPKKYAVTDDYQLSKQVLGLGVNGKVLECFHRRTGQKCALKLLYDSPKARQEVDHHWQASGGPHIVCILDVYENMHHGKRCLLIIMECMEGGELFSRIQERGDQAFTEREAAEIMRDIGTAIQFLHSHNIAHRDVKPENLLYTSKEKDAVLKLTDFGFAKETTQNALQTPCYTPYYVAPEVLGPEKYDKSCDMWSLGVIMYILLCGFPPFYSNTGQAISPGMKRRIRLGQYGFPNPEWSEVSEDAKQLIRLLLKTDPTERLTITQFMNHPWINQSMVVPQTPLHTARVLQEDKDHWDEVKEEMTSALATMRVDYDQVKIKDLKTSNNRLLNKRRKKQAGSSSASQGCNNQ

Question: With `C=CC(=O)Nc1cc(-c2cc(-c3cc4c([nH]3)CCNC4=O)ccn2)ccc1OC(F)(F)F` [compound 11] as the molecule, how does the IC50 (MK3) read?
Answer: > 100 nM

Question: What about the inhibition at 0.001 µM (MK3; MAPKAP-K3(h), 1 nM, read-out: Inhibition rate) of the same molecule?
Answer: -10%

Question: And the inhibition at 0.01 µM (MK3; MAPKAP-K3(h), 10 nM, read-out: Inhibition rate)?
Answer: 1%

Question: And the inhibition at 0.1 µM (MK3; MAPKAP-K3(h), 100 nM, read-out: Inhibition rate)?
Answer: 12%

Question: And the IC50 at 72 h [1]?
Answer: 33.4 ± 0.6 µM

Question: And the IC50 at 72 h [2]?
Answer: 30 to 50 µM

Question: And the inhibition at 0.01 µM ([3]; 10 nM)?
Answer: -7%

Question: What about the inhibition at 0.1 µM ([3]; 100 nM) of the same molecule?
Answer: 1%

Question: What about the inhibition at 1 µM ([3]; 1000 nM) of the same molecule?
Answer: 0%

Question: What about the inhibition at 0.01 µM ([4]; 10 nM) of the same molecule?
Answer: 6%

Question: And the inhibition at 0.1 µM ([4]; 100 nM)?
Answer: 6%

Question: What about the inhibition at 1 µM ([4]; 1000 nM) of the same molecule?
Answer: 3%

Question: What about the inhibition at 0.01 µM ([5]; 10 nM) of the same molecule?
Answer: -10%

Question: What about the inhibition at 0.1 µM ([5]; 100 nM) of the same molecule?
Answer: -7%

Question: What about the inhibition at 1 µM ([5]; 1000 nM) of the same molecule?
Answer: 0%

From paper PMC11233931, “Remodeling tumor‐associated macrophage for anti‐cancer effects by rational design of irreversible inhibition of mitogen‐activated protein kinase‐activated protein kinase 2” (MedComm, 2024)
